Measured values taken from US10757941B2, “Microbiocidal oxadiazole derivatives” (SYNGENTA PARTICIPATIONS AG, priority 2016, dated 2020).

What was measured:
[1] = tested on: Uromyces viciae-fabael; test: Fungicidal activity against Uromyces viciae-fabae / field bean / leaf disc preventative (faba-bean rust); type: in vivo; conditions: foliar, 288 h, 100 ppm in the applied formulation, field bean leaf discs, preventative (inoculated two hours after application), assessed 12 days after application, compared to untreated, read-out: disease control
Method: Leaf disks or leaf segments of various plant species are cut from plants grown in a greenhouse. The cut leaf disks or segments are placed in multiwell plates (24-well format) onto water agar. The leaf disks are sprayed with a test solution before (preventative) or after (curative) inoculation. Compounds to be tested are prepared as DMSO solutions (max. 10 mg/ml) which are diluted to the appropriate concentration with 0.025% Tween20 just before spraying. The inoculated leaf disks or segments are incubated under defined conditions (temperature, relative humidity, light, etc.) according to the respective test system. A single evaluation of disease level is carried out 3 to 14 days after inoculation, depending on the pathosystem. Percent disease control relative to the untreated check leaf disks or segments is then calculated. Example 5: Fungicidal Activity Against Uromyces viciae-fabael Field Bean/Leaf Disc Preventative (Faba-Bean Rust) Field bean leaf discs are placed on water agar in multiwell plates (96-well format) and 10 μl of the formulated test compound diluted in acetone and a spreader pipetted onto the leaf disc. Two hours after application leaf discs are inoculated by spraying a spore suspension on the lower leaf surface. The leaf discs are incubated in a climate cabinet at 22° C. with 18 hour day and 70% relative humidity. The activity of a compound is assessed as percent disease control compared to untreated when an appropriate level of disease damage appears in untreated check leaf disks (12 days after application). The following compounds at 100 ppm in the applied formulation give at least 80% disease control in this test when compared to untreated control leaf discs under the same conditions, which show extensive disease development.

[2] = tested on: Phakopsora pachyrhizi; test: Fungicidal activity against Phakopsora pachyrhizi / soybean / leaf disc preventative (Asian soybean rust); type: in vivo; conditions: foliar, 200 ppm in the applied formulation, soybean leaf disks, preventative (inoculated one day after application), assessed 12 to 14 days after application, compared to untreated, read-out: disease control
Method: Leaf disks or leaf segments of various plant species are cut from plants grown in a greenhouse. The cut leaf disks or segments are placed in multiwell plates (24-well format) onto water agar. The leaf disks are sprayed with a test solution before (preventative) or after (curative) inoculation. Compounds to be tested are prepared as DMSO solutions (max. 10 mg/ml) which are diluted to the appropriate concentration with 0.025% Tween20 just before spraying. The inoculated leaf disks or segments are incubated under defined conditions (temperature, relative humidity, light, etc.) according to the respective test system. A single evaluation of disease level is carried out 3 to 14 days after inoculation, depending on the pathosystem. Percent disease control relative to the untreated check leaf disks or segments is then calculated. Example 3: Fungicidal Activity Against Phakopsora pachyrhizi/Soybean/Leaf Disc Preventative (Asian Soybean Rust) Soybean leaf disks are placed on water agar in multiwell plates (24-well format) and sprayed with the formulated test compound diluted in water. One day after application leaf discs are inoculated by spraying a spore suspension on the lower leaf surface. After an incubation period in a climate cabinet of 24-36 hours in darkness at 20° C. and 75% rh leaf disc are kept at 20° C. with 12 h light/day and 75% rh. The activity of a compound is assessed as percent disease control compared to untreated when an appropriate level of disease damage appears in untreated check leaf disks (12 to 14 days after application). The following compounds at 200 ppm in the applied formulation give at least 80% disease control in this test when compared to untreated control leaf disks under the same conditions, which show extensive disease development.

[3] = tested on: Puccinia recondita f. Sp. Tritici; test: Fungicidal activity against Puccinia recondita f. sp. tritici / wheat / leaf disc preventative (brown rust); type: in vivo; conditions: foliar, 200 ppm in the applied formulation, wheat leaf segments cv. Kanzler, preventative (inoculated 1 day after application), assessed 7 to 9 days after application, compared to untreated, read-out: disease control
Method: Leaf disks or leaf segments of various plant species are cut from plants grown in a greenhouse. The cut leaf disks or segments are placed in multiwell plates (24-well format) onto water agar. The leaf disks are sprayed with a test solution before (preventative) or after (curative) inoculation. Compounds to be tested are prepared as DMSO solutions (max. 10 mg/ml) which are diluted to the appropriate concentration with 0.025% Tween20 just before spraying. The inoculated leaf disks or segments are incubated under defined conditions (temperature, relative humidity, light, etc.) according to the respective test system. A single evaluation of disease level is carried out 3 to 14 days after inoculation, depending on the pathosystem. Percent disease control relative to the untreated check leaf disks or segments is then calculated. Example 1: Fungicidal Activity Against Puccinia recondita f. Sp. Tritici/Wheat/Leaf Disc Preventative (Brown Rust) Wheat leaf segments cv. Kanzler were placed on agar in multiwell plates (24-well format) and sprayed with the formulated test compound diluted in water. The leaf disks were inoculated with a spore suspension of the fungus 1 day after application. The inoculated leaf segments were incubated at 19° C. and 75% relative humidity (rh) under a light regime of 12 hours light/12 hours darkness in a climate cabinet and the activity of a compound was assessed as percent disease control compared to untreated when an appropriate level of disease damage appears in untreated check leaf segments (7 to 9 days after application). The following compounds at 200 ppm in the applied formulation give at least 80% disease control in this test when compared to untreated control leaf disks under the same conditions, which show extensive disease development.

[4] = tested on: Puccinia recondita f. Sp. Tritici; test: Fungicidal activity against Puccinia recondita f. sp. tritici / wheat / leaf disc curative (brown rust); type: in vivo; conditions: foliar, 200 ppm in the applied formulation, wheat leaf segments cv. Kanzler, curative (applied 1 day after inoculation), assessed 6 to 8 days after application, compared to untreated, read-out: disease control
Method: Leaf disks or leaf segments of various plant species are cut from plants grown in a greenhouse. The cut leaf disks or segments are placed in multiwell plates (24-well format) onto water agar. The leaf disks are sprayed with a test solution before (preventative) or after (curative) inoculation. Compounds to be tested are prepared as DMSO solutions (max. 10 mg/ml) which are diluted to the appropriate concentration with 0.025% Tween20 just before spraying. The inoculated leaf disks or segments are incubated under defined conditions (temperature, relative humidity, light, etc.) according to the respective test system. A single evaluation of disease level is carried out 3 to 14 days after inoculation, depending on the pathosystem. Percent disease control relative to the untreated check leaf disks or segments is then calculated. Example 2: Fungicidal Activity Against Puccinia recondita f. Sp. Tritici/Wheat/Leaf Disc Curative (Brown Rust) Wheat leaf segments cv. Kanzler are placed on agar in multiwell plates (24-well format). The leaf segments are then inoculated with a spore suspension of the fungus. Plates were stored in darkness at 19° C. and 75% relative humidity. The formulated test compound diluted in water was applied 1 day after inoculation. The leaf segments were incubated at 19° C. and 75% relative humidity under a light regime of 12 hours light/12 hours darkness in a climate cabinet and the activity of a compound was assessed as percent disease control compared to untreated when an appropriate level of disease damage appears in untreated check leaf segments (6 to 8 days after application). The following compounds at 200 ppm in the applied formulation give at least 80% disease control in this test when compared to untreated control leaf disks under the same conditions, which show extensive disease development.

[5] = tested on: Glomerella lagenarium (Colletotrichum lagenarium); test: Fungicidal activity against Glomerella lagenarium (Colletotrichum lagenarium) liquid culture / cucumber / preventative (anthracnose); type: cell-based; conditions: Colletotrichum orbiculare; 20 ppm in the applied formulation; liquid culture in PDB, 24° C.; inhibition of growth measured photometrically 3 to 4 days after application; compared to untreated; read-out: disease control
Method: Mycelia fragments or conidia suspensions of a fungus prepared either freshly from liquid cultures of the fungus or from cryogenic storage, are directly mixed into nutrient broth. DMSO solutions of the test compound (max. 10 mg/ml) are diluted with 0.025% Tween20 by a factor of 50 and 10 μl of this solution is pipetted into a microtiter plate (96-well format). The nutrient broth containing the fungal spores/mycelia fragments is then added to give an end concentration of the tested compound. The test plates are incubated in the dark at 24° C. and 96% relative humidity. The inhibition of fungal growth is determined photometrically after 2 to 7 days, depending on the pathosystem, and percent antifungal activity relative to the untreated check is calculated. Example 4: Fungicidal Activity Against Glomerella lagenarium (Colletotrichum lagenarium) Liquid Culture/Cucumber/Preventative (Anthracnose) Conidia of the fungus from cryogenic storage are directly mixed into nutrient broth (PDB—potato dextrose broth). After placing a (DMSO) solution of test compound into a microtiter plate (96-well format), the nutrient broth containing the fungal spores is added. The test plates are incubated at 24° C. and the inhibition of growth is measured photometrically 3 to 4 days after application. The following compounds at 20 ppm in the applied formulation give at least 80% disease control in this test when compared to untreated control under the same conditions, which show extensive disease development.

CCOCC1(NC(=O)c2ccc(-c3noc(C(F)(F)F)n3)c(F)c2)CC1 [Compound 1.40, N-[1-(ethoxy-methyl)cyclopropyl]-3-fluoro-4-[5-(trifluoromethyl)-1,2,4-oxadiazol-3-yl]benzamide]
≥ 80%: pest or weed control at 100 ppm [1] | pest or weed control at 200 ppm [2] | pest or weed control at 200 ppm [3] | pest or weed control at 200 ppm [4] | inhibition of growth at 20 ppm [5]

COCCN(Cc1ccccc1)C(=O)c1ccc(-c2noc(C(F)(F)F)n2)c(F)c1 [Compound 1.16, N-benzyl-3-fluoro-N-(2-methoxyethyl)-4-[5-(trifluoromethyl)-1,2,4-oxadiazol-3-yl]benzamide]
≥ 80%: pest or weed control at 100 ppm [1] | pest or weed control at 200 ppm [2] | pest or weed control at 200 ppm [3] | pest or weed control at 200 ppm [4] | inhibition of growth at 20 ppm [5]

O=C(NC1CCC1)c1ccc(-c2noc(C(F)(F)F)n2)c(F)c1 [Compound 1.39, N-cyclobutyl-3-fluoro-4-[5-(trifluoromethyl)-1,2,4-oxadiazol-3-yl]benzamide]
≥ 80%: pest or weed control at 100 ppm [1] | pest or weed control at 200 ppm [2] | pest or weed control at 200 ppm [3] | pest or weed control at 200 ppm [4] | inhibition of growth at 20 ppm [5]

O=C(NCC1CC1)c1ccc(-c2noc(C(F)(F)F)n2)c(F)c1 [Compound 1.20, N-(cyclo-propylmethyl)-3-fluoro-4-[5-(trifluoromethyl)-1,2,4-oxadiazol-3-yl]benzamide]
≥ 80%: pest or weed control at 200 ppm [2] | pest or weed control at 200 ppm [3] | pest or weed control at 200 ppm [4] | inhibition of growth at 20 ppm [5]

O=C(NCC1CCOC1)c1ccc(-c2noc(C(F)(F)F)n2)c(F)c1 (centres unmarked) [Compound 1.14, 3-fluoro-N-(tetrahydrofuran-3-ylmethyl)-4-[5-(trifluoromethyl)-1,2,4-oxadiazol-3-yl]benzamide]
≥ 80%: pest or weed control at 100 ppm [1] | pest or weed control at 200 ppm [2] | pest or weed control at 200 ppm [3] | pest or weed control at 200 ppm [4] | inhibition of growth at 20 ppm [5]

Cc1ccc(CNC(=O)c2ccc(-c3noc(C(F)(F)F)n3)c(F)c2)o1 [Compound 1.28, 3-fluoro-N-[(5-methyl-2-furyl)methyl]-4-[5-(trifluoromethyl)-1,2,4-oxadiazol-3-yl]benzamide]
≥ 80%: pest or weed control at 100 ppm [1] | pest or weed control at 200 ppm [2] | pest or weed control at 200 ppm [3] | pest or weed control at 200 ppm [4] | inhibition of growth at 20 ppm [5]

COC(CN(C)C(=O)c1ccc(-c2noc(C(F)(F)F)n2)c(F)c1)OC [Compound 1.36, N-(2,2-dimethoxyethyl)-3-fluoro-N-methyl-4-[5-(trifluoromethyl)-1,2,4-oxadiazol-3-yl]benzamide]
≥ 80%: pest or weed control at 100 ppm [1] | pest or weed control at 200 ppm [2] | pest or weed control at 200 ppm [3] | pest or weed control at 200 ppm [4] | inhibition of growth at 20 ppm [5]

O=C(NCC1COCCO1)c1ccc(-c2noc(C(F)(F)F)n2)c(F)c1 (centres unmarked) [Compound 1.12, N-(1,4-dioxan-2-ylmethyl)-3-fluoro-4-[5-(trifluoromethyl)-1,2,4-oxadiazol-3-yl]benzamide]
≥ 80%: pest or weed control at 100 ppm [1] | pest or weed control at 200 ppm [2] | pest or weed control at 200 ppm [3] | pest or weed control at 200 ppm [4] | inhibition of growth at 20 ppm [5]

CCCN(CC1CC1)C(=O)c1ccc(-c2noc(C(F)(F)F)n2)c(F)c1 [Compound 1.41, N-(cyclopropyl-methyl)-3-fluoro-N-propyl-4-[5-(trifluoromethyl)-1,2,4-oxadiazol-3-yl]benzamide]
≥ 80%: pest or weed control at 100 ppm [1] | pest or weed control at 200 ppm [2] | pest or weed control at 200 ppm [4] | inhibition of growth at 20 ppm [5]

O=C(NCCc1cccs1)c1ccc(-c2noc(C(F)(F)F)n2)c(F)c1 [Compound 1.35, 3-fluoro-N-[2-(2-thienyl)ethyl]-4-[5-(trifluoromethyl)-1,2,4-oxadiazol-3-yl]benzamide]
≥ 80%: pest or weed control at 100 ppm [1] | pest or weed control at 200 ppm [2] | pest or weed control at 200 ppm [3] | pest or weed control at 200 ppm [4] | inhibition of growth at 20 ppm [5]

O=C(NC1(C2CC2)CC1)c1ccc(-c2noc(C(F)(F)F)n2)c(F)c1 [Compound 1.27, N-(1-cyclopropyl-cyclopropyl)-3-fluoro-4-[5-(trifluoromethyl)-1,2,4-oxadiazol-3-yl]benzamide]
≥ 80%: pest or weed control at 100 ppm [1] | pest or weed control at 200 ppm [2] | pest or weed control at 200 ppm [3] | pest or weed control at 200 ppm [4] | inhibition of growth at 20 ppm [5]
